Results on 8 compounds are retold here after publication PMC3568910, “P2X7 Receptor Activation Induces Reactive Oxygen Species Formation and Cell Death in Murine EOC13 Microglia” (Mediators of Inflammation, 2013).

For data set [1], the target named is T1, P2X7 (Mus musculus, UniProt Q9Z1M0).
T1 construct: endogenous in cells; host or cells: EOC13 murine microglial cell line
T1 sequence (Q9Z1M0 1-595): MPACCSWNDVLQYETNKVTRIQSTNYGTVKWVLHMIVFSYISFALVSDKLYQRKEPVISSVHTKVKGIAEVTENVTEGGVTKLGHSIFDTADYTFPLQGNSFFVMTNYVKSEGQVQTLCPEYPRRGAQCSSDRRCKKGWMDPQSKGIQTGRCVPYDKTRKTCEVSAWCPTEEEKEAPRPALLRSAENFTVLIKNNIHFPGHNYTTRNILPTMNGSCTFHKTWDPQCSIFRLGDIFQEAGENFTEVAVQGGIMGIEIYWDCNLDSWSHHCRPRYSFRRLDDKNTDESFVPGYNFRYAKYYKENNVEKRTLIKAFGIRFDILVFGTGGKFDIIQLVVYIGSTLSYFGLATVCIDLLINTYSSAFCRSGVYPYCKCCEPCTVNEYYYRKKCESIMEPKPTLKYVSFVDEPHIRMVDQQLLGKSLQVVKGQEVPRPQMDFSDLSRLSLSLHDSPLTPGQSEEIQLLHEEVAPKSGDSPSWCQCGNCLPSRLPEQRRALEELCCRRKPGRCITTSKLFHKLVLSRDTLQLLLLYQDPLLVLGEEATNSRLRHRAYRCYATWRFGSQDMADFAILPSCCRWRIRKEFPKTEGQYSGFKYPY
As to the kind of experiment: Fixed-time ethidium+ uptake assay (flow cytometry) in J774 macrophage cells. It counts as cell-based, murine. The note with it: for ethidium+ uptake compared to absence of nucleotide: 5 min. On the technique in general: In flow cytometry, cells or beads pass a laser one at a time.

Data set [2] deals with T1, P2X7. Description: Fixed-time ethidium+ uptake assay (flow cytometry) in EOC13 microglial cells. It counts as cell-based, murine. The note with it: for impairment of ATP-induced ethidium+ uptake: 15 min preincubation.
Data set [3] concerns EOC13 cells.
For data set [4], the system named is P2X7. On the set-up: method as in PMID 18657557. The settings on record: read-out: half maximal effective concentration (EC50) of ATP for P2X7 activation; cited from earlier work.
For data set [5], the system named is EOC13 cells. As to the kind of experiment: NO formation assay (DAF-FM DA, flow cytometry) in EOC13 cells. It counts as cell-based, murine. The source says: The medium was removed, and the cells were washed once.
Data set [6] deals with EOC13 cells. Description: cells. The format is cell-based. How it is done:
(§1) Following the 24 h incubations, cells were harvested from wells using 0.05% trypsin (5 min, 37°C) and washed once with Annexin-V binding medium (NaCl medium containing 5 mM CaCl2). Cells were then incubated with Annexin-V binding medium containing Annexin-V-Fluorescein and 7AAD at room temperature protected from light for 15 min. […] Quadrant markers were used to determine the percentage of Annexin-V^+/7AAD^−, Annexin-V^−/7AAD^+, and Annexin-V^+/7AAD^+ cells. In some experiments, cells prior to harvesting were visualised by DIC imaging to examine cell morphology, and DIC images captured as outlined in Section 2.8.

The subject of data set [7] is EOC13 cells. Description: Cell viability assessed by forward and side scatter (gated viable cells). It counts as cell-based, murine. The settings on record: for reduction of the amount of gated viable cells: ethidium+ uptake assay; for cell viability (forward and side scatter): 10 μM.
Data set [8] deals with EOC13 cells. Description: Cell morphology by DIC imaging. It counts as cell-based, murine. The procedure: as §1
Data set [9] has as its system EOC13 cells. As to the kind of experiment: cells. The settings on record: Mus musculus, read-out: inhibition of ATP-induced ROS formation, EOC13 cells, 40 mM NAC, 30 min preincubation, 1.4 mM ATP, NaCl medium.
Data set [10] has as its target T1, P2X7. Description: Fixed-time YO-PRO-1 2+ uptake assay (flow cytometry) in EOC13 microglial cells. The format is cell-based, murine. The note with it: 10 μM.
Setting [11] is: read-out: IC50 for impairment of 1 mM ATP-induced ethidium+ uptake, J774 cells, NaCl medium, 15 min preincubation, 1 mM ATP 5 min, 37°C.
Setting [12] is: EOC13 cells, antagonist 30 μM, 1 mM ATP.

Where “and” joins values, the source holds several entries; their conditions need not be identical. Equal values may be shown once. Entries after “also recorded” stand apart in the source; their conditions may differ. Read-outs that look alike come from different tables or passages of the source.

Regarding 2′(3′)-O-(4-benzoylbenzoyl) ATP [BzATP], the “ethidium+ uptake compared to absence of nucleotide” value is listed as “induced significant ethidium^+ uptake” at P2X7 [1] (J774 cells, 0.1 mM BzATP) and “induce significant ethidium^+ uptake” at P2X7 [2] (EOC13 cells, 0.1 mM BzATP, 5 min).

As for `c1ccc2c(c1)[I+]c1ccccc1-2` [DPI, diphenyleneiodonium], the “cell death on preincubation” value in the data set with EOC13 cells [3] (5–40 μM DPI, 30 min preincubation, data not shown) was “high amounts of cell death; also recorded: induced the death of EOC13 microglia”.

As to `Nc1ncnc2c1ncn2[C@@H]1O[C@H](COP(=O)(O)OP(=O)(O)OP(=O)(O)O)[C@@H](O)[C@H]1O` [ATP, adenosine-5′-triphosphate], the “ethidium+ uptake compared to absence of nucleotide” value is listed as “induced significant ethidium^+ uptake” on P2X7 [1] (J774 cells, 1 mM ATP) and “induce significant ethidium^+ uptake” on P2X7 [2] (EOC13 cells, 1 mM ATP, 5 min). The EC50 in the data set on P2X7 [4] was 100 to 300 µM; on P2X7 [2] (EOC13 cells, NaCl medium, 5 min, 37°C, read-out: EC50 for induction of ethidium+ uptake), ~130 µM and 130 µM. The “ROS formation compared to absence of ATP” value was “induced significant ROS formation” in the data set on EOC13 cells [3] (575 μM ATP4- (1.4 or 2 mM ATP), NaCl medium in absence and presence of 1 mM Ca2+); “induced significant ROS formation” with EOC13 cells [3] (1.4 mM ATP, NaCl and KCl media); “induced significant ROS formation” in the data set with EOC13 cells [3] (1.4 mM ATP, NaCl medium, 15 min (NAC experiment control)); “significant but similar amounts of ROS formation” in the data set with EOC13 cells [3] (1.4 mM ATP, absence and presence of 100 μM EGTA). For the same compound, the “MFI of ROS formation” value with EOC13 cells [3] (2 mM ATP, NaCl medium with 1 mM Ca2+, 15 min, absence of ATP 5.18 ± 0.06) amounted to 16.3 ± 0.6. The “ATP concentrations inducing significant ROS formation” value with EOC13 cells [3] (complete DMEM medium, 15 min) was 2 or 3 but not 1 mM ATP. The “NO formation compared to absence of ATP” value in the data set with EOC13 cells [5] (1.4 mM ATP, 15 min, NaCl medium) is “induced significant NO formation”. Also, the “duration of transient ATP incubation giving significant cell death” value in the data set on EOC13 cells [6] (EOC13 cells, 2 mM ATP, then fresh medium 24 h) was 30 or 60 min but not 15 min and 30–60 but not 15 min. Further, in the data set with EOC13 cells [6] (EOC13 cells, complete DMEM medium, 24 h), the “ATP concentrations giving significantly higher total cell death than absence of ATP” value is 2 or 3 mM ATP but not 1 mM ATP and 2 or 3 but not 1 mM ATP.

In general, IC50 refers to the midpoint of a concentration-inhibition curve. Turning to `O=C1CSC(=O)N1C(CCc1ccncc1)COc1ccc(-c2cccc([N+](=O)[O-])c2)cc1` (centres unmarked) [AZ11645373], the “type of antagonism at the ATP concentration used” value on P2X7 [1] (J774 cells, 1 mM ATP) is given as “partial antagonists”. The IC50 on P2X7 [1] (setting [11]) was found to be 1.5 ± 0.1 µM. For the same compound, the “effect on basal ethidium+ uptake” value at P2X7 [2] (EOC13 cells, absence of ATP, antagonist at concentration used (10-100 μM)) is given as “significantly altered”. In addition, the “impairment of ATP-induced ethidium+ uptake” value (“impairment” for short) on P2X7 [2] (setting [12]) is on record as 99 ± 1%. Further, the “reduction of the amount of gated viable cells” value in the data set on EOC13 cells [7] (30 μM) was ~ 30%.

For `CCOc1ccc(Nc2ccc(/C(=C3C=C/C(=[N+](/CC)Cc4cccc(S(=O)(=O)[O-])c4)C=C/3C)c3ccc(N(CC)Cc4cccc(S(=O)(=O)O)c4)cc3C)cc2)cc1` [BBG, Brilliant Blue G], inhibition on P2X7 [1] was half-maximal at 1.8 ± 0.2 µM (IC50). In addition, the “type of antagonism at the ATP concentration used” value at P2X7 [1] (J774 cells, 1 mM ATP) was “partial antagonists”. Besides, on P2X7 [2] (setting [12]), the “impairment” value worked out at 75 ± 2%.

The term inhibition denotes the relative decrease from the control value, in per cent. For the compound `CC(=O)N[C@@H](CS)C(=O)O` [NAC, N-acetyl-L-cysteine], the “effect on ATP-associated morphological changes (DIC)” value in the data set on EOC13 cells [8] (40 mM NAC 90 min, 2 mM ATP final 45 min, then 24 h) is given as “prevented the morphological changes associated with ATP incubation”. The “effect on cell morphology (DIC)” value in the data set on EOC13 cells [8] (ROS assay conditions, 40 mM NAC with or without 1.4 mM ATP) is on record as “not altered by NAC”. Also, the “effect on cell morphology (DIC), NAC alone” value with EOC13 cells [8] (cell death assay conditions, 40 mM NAC 90 min, then 24 h) is “no effect on cell morphology”. Further, the inhibition at 40000 µM came to 73.7 ± 0.3% in the data set on EOC13 cells [9]; 30 ± 2% on P2X7 [2] (P2X7, read-out: inhibition of ATP-induced ethidium+ uptake (pore formation)); 99 ± 6% in the data set with EOC13 cells [6] (Mus musculus, read-out: inhibition of ATP-induced cell death). Also, the “inhibition of ATP-induced ROS formation” value in the data set with EOC13 cells [3] (40 mM NAC, 30 min preincubation, 1.4 mM ATP, NaCl medium) was found to be 74%. Besides, the “effect on percentage of ATP-induced cell death” value with EOC13 cells [6] (EOC13 cells, 40 mM NAC, 75 and 30 min preincubation followed by 15 and 60 min 2 mM ATP, respectively) is “had no effect”. In the data set with EOC13 cells [7] (incubation with 40 mM NAC and ATP together, not either compound alone), the “reduction of the amount of gated viable cells” value is ~ 40%.

On to `O=C(CC12CC3CC(CC(C3)C1)C2)Nc1cccc2nc(NCCNCCO)ccc12` [AZ10606120], for which the “inhibition of ATP-induced ethidium+ uptake” value on P2X7 [1] (J774 cells, antagonist 10 μM, 1 mM ATP) is listed as “completely inhibited”. Also, the IC50 at P2X7 [1] (setting [11]) stood at 1 ± 0.1 µM. For the same compound, the “inhibition of ATP-induced ROS formation” value with EOC13 cells [3] (10 μM, 15 min preincubation, 2 mM ATP, NaCl medium with 1 mM Ca2+) is recorded as “complete inhibition; also recorded: completely impaired”; in the data set with EOC13 cells [3] (10 μM, 15 min preincubation, 2 mM ATP, complete DMEM medium), “completely inhibited”. Moreover, in the data set on EOC13 cells [3] (10 μM, absence of ATP), the “effect on basal ROS formation” value is on record as “did not significantly alter”. In addition, in the data set with EOC13 cells [5] (10 μM, 15 min preincubation, 1.4 mM ATP), the “inhibition of ATP-induced NO formation” value is 82 ± 11%. Also, the “effect on basal NO formation” value in the data set with EOC13 cells [5] (10 μM, absence of ATP) is on record as “did not significantly alter”. The “cell viability (forward and side scatter)” value with EOC13 cells [7] (NO assay) and in the data set on EOC13 cells [7] (ROS assay) was “did not significantly alter” in each case. Further, the “inhibition of ATP-induced YO-PRO-1 2+ uptake” value at P2X7 [10] (15 min preincubation, 1 mM ATP) is on record as “complete inhibition”. For the same compound, at P2X7 [10] (absence of ATP), the “effect on basal YO-PRO-1 2+ uptake” value was “did not significantly alter”.

Regarding `Clc1cccc(-c2nnnn2Cc2cccnc2)c1Cl` [A438079], at P2X7 [1] (J774 cells, antagonist 100 μM, 1 mM ATP), the “inhibition of ATP-induced ethidium+ uptake” value is listed as “completely inhibited”. Further, the IC50 on P2X7 [1] (setting [11]) turned out to be 7.9 ± 0.4 µM. In addition, on P2X7 [2] (EOC13 cells, antagonist 100 μM, 1 mM ATP), the “impairment” value turned out to be 90 ± 1%.
